Measurements: the supplement of paper PMC10307832

Legend:
Assay in all cases: relative viability (nuclei count vs DMSO), 5 days (fraction); higher = more cells survive
KN-93 + Vorinostat = compound: CN(C/C=C/C1=CC=C(C=C1)Cl)CC2=CC=CC=C2N(CCO)S(=O)(=O)C3=CC=C(C=C3)OC [KN-93] + O=C(CCCCCCC(=O)Nc1ccccc1)NO [Vorinostat] (partner 1 µM)
How it was run: (§1)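 One day after seeding in 1536-well plates, lung cancer cell lines were dosed by pin tool. Dosing was either single-drug or a fixed anchor-drug dose plus five library-drug doses (not always all listed) in √10 steps. After 5 days, nuclei were stained in one fix-and-stain step and counted on 4× images, and relative viability is the nuclei count of treated wells over that of vehicle wells, given as the median of duplicate plates.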

KN-93 + Alpelisib = compound: CN(C/C=C/C1=CC=C(C=C1)Cl)CC2=CC=CC=C2N(CCO)S(=O)(=O)C3=CC=C(C=C3)OC [KN-93] + Cc1nc(NC(=O)N2CCC[C@H]2C(N)=O)sc1-c1ccnc(C(C)(C)C(F)(F)F)c1 [Alpelisib] (partner 2 µM)
How it was run: as §1

KN-93 + Pemetrexed = compound: CN(C/C=C/C1=CC=C(C=C1)Cl)CC2=CC=CC=C2N(CCO)S(=O)(=O)C3=CC=C(C=C3)OC [KN-93] + Nc1nc2[nH]cc(CCc3ccc(C(=O)N[C@@H](CCC(=O)O)C(=O)O)cc3)c2c(=O)[nH]1 [Pemetrexed] (partner 0.2 µM)
How it was run: as §1

KN-93 + Olaparib = compound: CN(C/C=C/C1=CC=C(C=C1)Cl)CC2=CC=CC=C2N(CCO)S(=O)(=O)C3=CC=C(C=C3)OC [KN-93] + O=C(c1cc(Cc2n[nH]c(=O)c3ccccc23)ccc1F)N1CCN(C(=O)C2CC2)CC1 [Olaparib] (partner 8 µM)
How it was run: as §1

KN-93 + Decitabine = compound: CN(C/C=C/C1=CC=C(C=C1)Cl)CC2=CC=CC=C2N(CCO)S(=O)(=O)C3=CC=C(C=C3)OC [KN-93] + Nc1ncn([C@H]2C[C@H](O)[C@@H](CO)O2)c(=O)n1 [Decitabine] (partner 2 µM)
How it was run: as §1

Cell Line	relative viability (KN-93 + Vorinostat; first compound 0.08 µM)	relative viability (KN-93 + Vorinostat; first compound 0.253 µM)	relative viability (KN-93 + Vorinostat; first compound 2.53 µM)	relative viability (KN-93 + Vorinostat; first compound 8 µM)	relative viability (KN-93 + Alpelisib; first compound 0.08 µM)	relative viability (KN-93 + Alpelisib; first compound 0.253 µM)	relative viability (KN-93 + Alpelisib; first compound 2.53 µM)	relative viability (KN-93 + Alpelisib; first compound 8 µM)	relative viability (KN-93 + Pemetrexed; first compound 0.08 µM)	relative viability (KN-93 + Pemetrexed; first compound 0.253 µM)	relative viability (KN-93 + Pemetrexed; first compound 2.53 µM)	relative viability (KN-93 + Pemetrexed; first compound 8 µM)	relative viability (KN-93 + Olaparib; first compound 0.08 µM)	relative viability (KN-93 + Olaparib; first compound 0.253 µM)	relative viability (KN-93 + Olaparib; first compound 2.53 µM)	relative viability (KN-93 + Olaparib; first compound 8 µM)	relative viability (KN-93 + Decitabine; first compound 0.08 µM)	relative viability (KN-93 + Decitabine; first compound 0.253 µM)	relative viability (KN-93 + Decitabine; first compound 2.53 µM)	relative viability (KN-93 + Decitabine; first compound 8 µM)
NCI-H23	0.596	0.626	0.543	0.258	0.592	0.702	1.01	0.596	0.685	0.866	0.883	0.502	0.3	0.251	0.407	0.233	0.849	0.306	0.296	0.288
HARA	0.394	0.475	0.503	0.493	0.811	0.775	0.705	0.471	0.292	0.29	0.282	0.247	0.524	0.584	0.718	0.336	0.572	0.554	0.641	0.506
NCI-H1793	0.882	0.565	0.89	0.249		0.851	0.624	0.542	0.97	0.899	1.1	0.528	0.74	0.83	0.783	0.382	0.595	0.494	0.465	0.43
NCI-H3122	0.595	1.12	1.08	0.66	0.829	0.659	0.766	0.585	0.199	0.194	0.19	0.341	0.491	0.571	0.763	0.53	0.364	0.398	0.359	0.367
HOP-62	0.557	0.824	0.748	0.487	1.1	1.22	1.22	0.866	0.28	0.383	0.346	0.322	0.325	0.401	0.0964	0.545	0.225	0.27	0.241	0.239
UMC-11	0.364	0.35	0.359	0.267		1.24	1.27	0.613	0.697	1.01	1.05	0.467	0.43	0.402	0.327	0.214	0.594	0.612	0.634	0.461
NCI-H2023	0.636	0.67	0.763	0.551	0.562	0.46	0.689	0.517	0.244	0.247	0.325	0.14	0.454	0.542	0.606	0.324	0.189	0.239	0.219	0.201
NCI-H1651	0.517	0.607	0.601	0.528	1.05	1.23	1.3	0.624	0.611	0.701	0.567	0.511	0.203	0.178	0.199	0.179	0.594	0.597	0.623	0.534
LCLC-103H	0.782	0.768	0.658	0.573	1	0.994	0.92	0.861	0.455	0.443	0.515	0.475	0.701	0.859	0.758	0.558	0.657	0.69	0.673	0.518
COR-L 105	0.632	0.824	0.551	0.836	0.866	0.991	0.918	0.74	1.07	1.02	1.31	0.832	0.722	0.499	0.545	0.661	0.635	0.657	0.667	0.634
NCI-H520	0.619	0.906	0.831	0.58		1.38	1.05	0.763	0.72	0.738	0.658	0.422	0.312	0.312	0.282	0.272	0.596	0.599	0.538	0.458
NCI-H2347	0.513	0.623	0.674	0.458	1	1.09	1.07	0.764	0.376	0.473	0.45	0.549	0.491	0.59	0.606	0.497	0.57	0.617	0.643	0.539
